2 compounds from PMC11178805, “Ligand-based design of [^18F]OXD-2314 for PET imaging in non-Alzheimer’s disease tauopathies” (Nature Communications, 2024) can be followed below.

The structures appear in SMILES notation.

For data set [1], the target named is T1, norepinephrine transporter(h) (Homo sapiens, UniProt P23975).
T1 construct: purchased Eurofins, France (contract screening)
As to the kind of experiment: In vitro pharmacology binding screen (Eurofins): norepinephrine transporter. The following applies: read-out: inhibition of antagonist radioligand (protriptyline) binding to norepinephrine transporter(h). As to the method: (§1) OXD-2314 binding to CNS receptors was calculated as a percentage of inhibition of a receptor-specific radioligand. Enzyme inhibition was calculated as the percent inhibition of baseline enzyme activity where inhibition above 50% was considered significant. […] Norepinephrine transports are expressed in low concentration throughout the brain and its relative concentration are not affected by aging or neurodegeneration. 5-lipoxygenase may be overexpressed in aging brain and play some role in neurodegeneration, which could be necessary to further investigate in vivo[42]. Off-target binding to monoamine oxidase A and B (MAO-A and MAO-B) has been seen with some tau PET radiotracers[43],[44].

Data set [2] concerns the target T2, 4R-tau aggregates in PSP tissue (Homo sapiens, UniProt P10636).
T2 construct: tissue Neurodegenerative Disease Brain Bank at UCSF
Briefly: Competition binding vs [^3H]OXD-2314 in PSP tissue. As to the method: (§2) Fresh frozen, autopsy-confirmed human PD anterior cingulate cortex brain tissue blocks (1 cm^3) were obtained from Dr. Thomas Beach at Banner/Sun Health AZ with funding from the Michael J. Fox Foundation and contained frequent α-synuclein aggregates and no other detectable aggregated amyloid species. The frozen tissue blocks were prepared for the binding assays as previously described[47],[48], except that equal quantities of the homogenates of three AD brains (AD1-AD3, Table S1) were pooled, as were homogenates from three PSP brains (PSP1-PSP3), three CBD brains (CBD1-CBD3), three Pick’s brains (PiD1-PiD3), and 4 PD brains (PD1-PD4) in order to help minimize the inter-subject variability within the different neuropathological groups. Individual subcortical brain tissues from a PSP subject (PSP4) and a CBD subject (CBD4), as well as with the middle frontal cortex of a control subject, were prepared for the binding assays as previously described[47],[48].
(§3) The equilibrium inhibition constant (Ki) values of the unlabeled compounds were determined versus tritium-labeled radioligands using published methods.

A further data set has as its target T3, MAO-A (Homo sapiens, UniProt P21397).
T3 construct: purchased Eurofins, France (contract screening)
T3 sequence (P21397 1-527): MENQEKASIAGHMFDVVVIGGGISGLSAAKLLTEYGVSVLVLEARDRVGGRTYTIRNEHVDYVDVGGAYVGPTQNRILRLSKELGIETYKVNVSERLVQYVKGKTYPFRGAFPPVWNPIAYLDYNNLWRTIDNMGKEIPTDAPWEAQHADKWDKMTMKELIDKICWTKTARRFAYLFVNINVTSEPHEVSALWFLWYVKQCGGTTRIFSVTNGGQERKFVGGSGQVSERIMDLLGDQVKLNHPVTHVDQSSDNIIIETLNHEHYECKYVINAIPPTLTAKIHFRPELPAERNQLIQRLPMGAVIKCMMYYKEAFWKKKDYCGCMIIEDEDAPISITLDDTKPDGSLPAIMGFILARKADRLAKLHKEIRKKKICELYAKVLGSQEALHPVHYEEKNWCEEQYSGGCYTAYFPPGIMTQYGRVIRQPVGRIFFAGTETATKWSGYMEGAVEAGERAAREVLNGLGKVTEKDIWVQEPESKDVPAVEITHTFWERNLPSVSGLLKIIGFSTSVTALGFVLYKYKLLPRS
As to the kind of experiment: In vitro pharmacology screen (Eurofins): MAO-A. The class given is binding. The note with it: read-out: interaction with MAO-A (% inhibition). As to the method: as §1

In data set [3] the target is T4, 3R-tau aggregates in PiD tissue (Homo sapiens, UniProt P10636).
T4 construct: tissue Neurodegenerative Disease Brain Bank at UCSF; host or cells: human PiD brain, middle frontal gyrus, pooled homogenate of three brains
As to the kind of experiment: Competition binding vs [^3H]OXD-2314 in PiD tissue. As to the method:
as §2, §3

The next data set deals with T5, 5-lipoxygenase (Homo sapiens, UniProt P09917).
T5 construct: purchased Eurofins, France (contract screening)
T5 sequence (P09917 1-674): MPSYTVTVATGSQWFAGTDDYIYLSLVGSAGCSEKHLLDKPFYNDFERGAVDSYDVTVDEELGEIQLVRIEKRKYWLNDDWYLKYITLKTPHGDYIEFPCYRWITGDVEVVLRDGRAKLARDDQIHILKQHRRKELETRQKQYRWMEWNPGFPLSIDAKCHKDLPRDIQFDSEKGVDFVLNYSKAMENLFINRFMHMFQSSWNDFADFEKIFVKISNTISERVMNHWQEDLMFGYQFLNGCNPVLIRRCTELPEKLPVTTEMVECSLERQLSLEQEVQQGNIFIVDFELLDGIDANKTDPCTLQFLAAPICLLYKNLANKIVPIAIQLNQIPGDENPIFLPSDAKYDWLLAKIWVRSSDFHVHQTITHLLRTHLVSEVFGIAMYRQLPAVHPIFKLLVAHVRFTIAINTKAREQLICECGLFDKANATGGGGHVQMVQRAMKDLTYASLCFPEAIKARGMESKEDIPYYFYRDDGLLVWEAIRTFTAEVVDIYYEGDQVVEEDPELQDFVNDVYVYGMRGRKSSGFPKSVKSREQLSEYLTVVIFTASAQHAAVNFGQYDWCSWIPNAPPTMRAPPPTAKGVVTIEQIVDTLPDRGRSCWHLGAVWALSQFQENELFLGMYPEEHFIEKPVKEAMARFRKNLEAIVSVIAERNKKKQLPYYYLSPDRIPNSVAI
Briefly: In vitro pharmacology enzyme screen (Eurofins): 5-lipoxygenase. The format is biochemical. As to the method:
as §1

A short description of data set [4]: logD7.4 by shake-flask method. The note with it: pH 7.4. The class given is physicochemical. An excerpt: [^18F]OXD-2314 was radiolabeled by an analogous method previously reported for [^18F]OXD-2115 with minor modifications (Fig. 2)[30]. [^18F]OXD-2314 was reliably produced with high radiochemical purity (RCP) ranging from 95-98%, molar activity (Am) of […] (n = 4), and radiochemical yield (RCY) of 8.7 ± 3.7% (not decay-corrected, ndc) in the laboratories in Toronto and was replicated with Am of 349 ± 144 GBq/μmol (n = 4) and RCY of 2.3 ± 1.1% (ndc) in the laboratories in Pittsburgh. The logD7.4 value of [^18F]OXD-2314 was measured as 3.11 ± 0.04 using the shake-flask method.

T4 sequence (P10636 1-410 isoform P10636-5): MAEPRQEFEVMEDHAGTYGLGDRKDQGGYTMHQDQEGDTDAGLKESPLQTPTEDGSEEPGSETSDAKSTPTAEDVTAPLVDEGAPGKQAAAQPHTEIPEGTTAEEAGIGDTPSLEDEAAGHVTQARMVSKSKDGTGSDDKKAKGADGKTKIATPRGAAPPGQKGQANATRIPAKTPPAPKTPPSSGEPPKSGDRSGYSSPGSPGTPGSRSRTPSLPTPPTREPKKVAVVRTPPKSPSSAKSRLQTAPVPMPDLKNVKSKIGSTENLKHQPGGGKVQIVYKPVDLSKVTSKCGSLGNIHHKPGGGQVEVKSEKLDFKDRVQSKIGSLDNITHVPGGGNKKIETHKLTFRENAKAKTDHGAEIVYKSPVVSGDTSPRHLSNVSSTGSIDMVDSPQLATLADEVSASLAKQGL
T1 sequence (P23975 whole entry): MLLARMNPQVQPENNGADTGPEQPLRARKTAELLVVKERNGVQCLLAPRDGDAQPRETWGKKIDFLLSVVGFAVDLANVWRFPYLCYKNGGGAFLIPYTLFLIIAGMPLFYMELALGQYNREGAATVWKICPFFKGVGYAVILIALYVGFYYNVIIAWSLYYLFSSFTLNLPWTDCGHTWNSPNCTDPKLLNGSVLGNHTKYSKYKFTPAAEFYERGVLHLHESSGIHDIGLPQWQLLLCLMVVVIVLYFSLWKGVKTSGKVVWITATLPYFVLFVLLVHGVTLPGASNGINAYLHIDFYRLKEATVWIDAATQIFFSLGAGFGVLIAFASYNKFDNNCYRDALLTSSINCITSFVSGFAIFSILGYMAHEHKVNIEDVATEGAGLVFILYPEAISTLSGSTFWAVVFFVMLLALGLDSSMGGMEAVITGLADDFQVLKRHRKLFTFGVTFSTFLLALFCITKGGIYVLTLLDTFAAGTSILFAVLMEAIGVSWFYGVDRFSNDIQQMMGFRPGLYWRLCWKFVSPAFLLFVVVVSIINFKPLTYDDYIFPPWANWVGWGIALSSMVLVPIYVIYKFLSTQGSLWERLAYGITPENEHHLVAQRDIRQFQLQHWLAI
T2 sequence (P10636 1-441 isoform P10636-8): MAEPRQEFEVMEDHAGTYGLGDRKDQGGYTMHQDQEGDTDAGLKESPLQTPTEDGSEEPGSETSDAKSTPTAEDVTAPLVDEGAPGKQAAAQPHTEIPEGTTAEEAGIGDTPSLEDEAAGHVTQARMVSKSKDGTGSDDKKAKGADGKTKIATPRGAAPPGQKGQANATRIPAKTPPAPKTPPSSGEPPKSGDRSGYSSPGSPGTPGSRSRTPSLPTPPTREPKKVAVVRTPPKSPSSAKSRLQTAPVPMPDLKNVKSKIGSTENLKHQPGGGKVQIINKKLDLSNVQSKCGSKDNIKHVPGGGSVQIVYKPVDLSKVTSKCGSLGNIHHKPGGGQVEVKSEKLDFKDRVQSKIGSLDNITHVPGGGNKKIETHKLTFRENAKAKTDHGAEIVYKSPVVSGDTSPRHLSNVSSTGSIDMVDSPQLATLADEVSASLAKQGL

Broadly, the inhibition is the change of the read-out against control, counted positive when it falls. By Ki is commonly meant a dissociation constant, usually derived from enzyme kinetics or from competition with a known ligand. In the case of `COC1CCCN(c2ccc(-c3cc4cc(O)ccc4[nH]3)c(F)n2)C1` (stereo not drawn) [OXD-2314, 2-(2-fluoro-6-(3-methoxypiperidin-1-yl)pyridin-3-yl)-1H-indol-5-ol], the results for the inhibition at 10 µM (in data set [1]; on MAO-A; at 5-lipoxygenase) were 62.9%, -1.7% and 50.1%, respectively. Besides, the figures for the Ki in data set [2] and in data set [3] were 5.8 ± 0.2 nM and 5.5 ± 0.5 nM, respectively.

What is called logD is the decadic logarithm of the distribution of all forms, ionised or not, between an organic phase and buffer at a given pH. A low value points to lower lipophilicity. The compound `CO[C@H]1CCCN(c2ccc(-c3cc4cc(O)ccc4[nH]3)c([18F])n2)C1` [[^18F]OXD-2314] showed a logD in data set [4] of 3.11 ± 0.04.
